Reference: patent US4812443A, “Methods for enhancing differentiation and proliferation of hematopoietic progenitor cells” (Kuraray Co., Ltd., priority 1984, dated 1989)

What was measured:
[1] = tested on: late erythrocytic progenitor cells (CFU-e); test: Differentiation and proliferation of late erythrocytic progenitor cells (CFU-e), cluster colony formation; format: cell-based, mouse (BDF1-strain); conditions: 20 μg/ml, Runs 2 to 4; for Number of colonies formed in the dolichols-added group (CFU-e): 2 days, erythropoietin 0.25 unit, mean ± S.E., 6 replicas, solvent controls 124.2 ± 2.7, 246.0 ± 5.0, 124.7 ± 2.9
Method: (§1) The mouse bone marrow cells used in the following experiments were all prepared as follows:
(§2) BDF1 -strain mice (female, 8 to 10 weeks old) were killed by cervical dislocation, and the femurs were collected under sterile conditions. The bone marrow cells were flushed out from the femurs with α-medium, and formed into a single cell suspension by repeated aspiration with a 26-gauge needle fitted to a 1 ml-syringe. The cells were washed two times with α-medium by centrifugation at 200×G for 5 minutes and used in the following experiments.
In accordance with the method of Murphy et al. mentioned above, mouse bone marrow cells were plated at 2.5×10^4 nuclear cells into 0.5 ml of α-medium containing 0.25 unit of erythropoietin, 30% fetal bovine serum, 1% bovine serum albumin, 0.1 mM 2-mercaptoethanol and 0.4% methyl cellulose with 10 μg of dolichol dissolved in 1 μl of ethanol, 10 μg of dolichyl phosphate dispersed in 0.5 μl of dimethyl sulfoxide, 1 μl of ethanol or 0.5 μl of dimethyl sulfoxide in a 16 mm.phi. tissue culture plate, and incubated at 37° C. in a humidified atmosphere of 5% carbon dioxide in air for 2 days. The number of cluster colonies consisting of 8 to 64 erythroblasts derived from CFU-e in the tissue culture plate was scored with an inverted microscope. The experiment was carried out by 6 replica assays for each group, and the average number of the colonies formed was determined. The results are shown in Table 3, in the rows of Runs 2 to 4.

[2] = tested on: early erythrocytic progenitor cells (BFU-e); test: Differentiation and proliferation of early erythrocytic progenitor cells (BFU-e), burst colony formation; format: cell-based, mouse (BDF1-strain); conditions: 20 μg/ml, Run 1
Method: as §1, §2
In accordance with the method of Murphy et al. (In Vitro Aspects of Erythropoiesis, page 262, Sringer-Verlag, 1978), mouse bone marrow cells were plated at 2×10^5 nuclear cells into 1 ml of α-medium containing 1 unit of erythropoietin, 30% fetal bovine serum, 1% bovine serum albumin, 0.1 mM 2-mercaptoethanol and 0.8% methyl cellulose with 20 μg of dolichyl phosphate dispersed in 1 μl of dimethyl sulfoxide or 1 μl of dimethyl sulfoxide in a 35 mm.phi. tissue culture plate, and incubated at 37° C. in a humidified atmosphere of 5% carbon dioxide in air for 9 days. The number of burst colonies consisting of more than 500 erythroblasts derived from BFU-e in the tissue culture plate was scored with an inverted microscope. The experiment was carried out by 6 replica assays for each group, and the average number of the colonies formed was determined.

[3] = tested on: granulocyte-macrophage progenitor cells (CFU-c); test: Differentiation and proliferation of granulocyte-macrophage progenitor cells (CFU-c), colony formation; format: cell-based, mouse (BDF1-strain); conditions: printed 20 g/ml (method: 20 μg in 1 ml), Run 5
Method: as §1, §2
In accordance with the method of Worton et al. [R. G. Worton et al., J. Cell Physiol., 74, 171 (1969)], mouse bone marrow cells were plated at 1×10^5 nuclear cells into 1 ml of α-medium containing 10% L cell-conditioned medium as source of colony stimulating factor, 20% fetal bovine serum and 0.8% methyl cellulose with 20 μg of dolichyl phosphate dispersed in 1 μl of dimethyl sulfoxide or 1 μl of dimethyl sulfoxide in a 35 mm.phi. tissue culture plate, and incubated at 37° C. in a humidified atmosphere of 5% carbon dioxide in air for 7 days. The number of colonies consisting of more than 50 cells (granulocytecolonies, macrophage colonies or their mixed colonies) derived from […] was scored with an inverted microscope. The experiment was carried out by 6 replica assays for each group, and the average number of the colonies formed was determined.

[4] = tested on: erythropoiesis; test: Erythropoiesis in vivo, 59Fe incorporation in hereditarily anemic mice (Run 7); set-up: species or system mouse (WBB6 F1-W/Wv-strain); conditions: 250 mg/kg once i.p.
Method: Phenylhydrazine was administered to normal mice and hereditarily anemic mice to induce severe hemolytic anemia. Then, the rate of erythropoiesis during recovering of anemia was determined by measuring the rate of radioactive iron (^59 Fe) incorporation into newly formed red blood cells [P. M. Cotes, D. R. Bangham, Nature (London), 191, 1067 (1961)]. The testing method and results are described below.
Dolichyl phosphate in a dose of 250 mg/kg (0.2 ml of an emulsion obtained by emulsifying […] of dolichyl phosphate and 25 mg of sesame oil in 1 ml of a 1% aqueous solution of sodium carboxymethyl cellulose per 20 g of the body weight) was intraperitoneally administered to hereditarily anemic WBB6 F1 -W/Wv-strain mice (6 weeks old, female) on the 1st day of the experiment. A 1% aqueous solution of sodium carboxymethyl cellulose was intraperitoneally administered (0.2 ml/20 g of body weight) to a control group. On the 2nd day, the mice in each group were subcutaneously injected with phenylhydrazine hydrochloride in a dose of 60 mg/kg. […] On the 5th day, 0.5 ml of the whole blood was taken from each mouse, and the ^59 Fe incorporation rates during the period of 48 hours were measured as in Run 6. The experiment was carried out on 6 mice in each group, and the average value of the incorporation rates was calculated.

[5] = tested on: mice; test: Acute toxicity of dolichyl phosphate in mice; format: in vivo, mouse (BDF1-strain); conditions: 1000 mg/kg and 2000 mg/kg i.p.; 2nd day of administration
Method: (2) Dolichyl phosphate synthesized in Referential Example 3 below was dissolved in the same amount of sesame oil, and added to a 1% aqueous solution of sodium carboxy methyl cellulose so that the concentration of dolichyl phosphate reached 5% V/V. The resulting emulsion was used in the test.
BDF1 -strain mice (20-23 g, female), 6 per group, were used.

[6] = tested on: erythropoietic progenitor cells; conditions: in vitro cell culture, presence of hematopoietic stimulating hormones; Table 1; cited from earlier work
[7] = general knowledge; cited from earlier work
[8] = tested on: dolichol biosynthesis in spleen; conditions: phenylhydrazine subcutaneous (induced anemia); cited from earlier work
[9] = tested on: sea urchin embryos; conditions: compactin added to the culture of the embryos; cited from earlier work

Molecule: CC(C)=CCC/C(C)=C/CC/C(C)=C/CC/C(C)=C\CC/C(C)=C\CC/C(C)=C\CC/C(C)=C\CC/C(C)=C\CC/C(C)=C\CC/C(C)=C\CC/C(C)=C\CC/C(C)=C\CC/C(C)=C\CC/C(C)=C\CC/C(C)=C\CC/C(C)=C\CC/C(C)=C\CC/C(C)=C\CC[C@H](C)CCO [Dolichol (n = 15)]
- Number of colonies formed in the dolichols-added group (CFU-e) [1]: 293.0 ± 6.2
- activation at 20 µg/mL ([1]; Mus musculus, 48 h, vs solvent-added control group, read-out: Percent increase (%) of colony formation (CFU-e)): 19.1%

Molecule: dolichyl phosphate
- Number of colonies formed in the dolichols-added group (BFU-e) ([2]; 9 days, erythropoietin 1 unit, mean ± S.E., 6 replicas, solvent control 73.7 ± 3.4): 99.5 ± 2.4
- Percent increase (%) of colony formation (BFU-e) ([2]; vs solvent-added control group): +35.0%
- Number of colonies formed in the dolichols-added group (CFU-e) [1]: 166.7 ± 2.4
- Percent increase (%) of colony formation (CFU-e) ([1]; vs solvent-added control group): +33.7%
- Number of colonies formed in the dolichols-added group (CFU-c) ([3]; 7 days, mean ± S.E., 6 replicas, solvent control 256.8 ± 4.3): 295.3 ± 4.9
- Percent increase (%) of colony formation (CFU-c) ([3]; vs solvent-added control group): +15.0%
- 59Fe incorporation rate (%), dolichol administered group ([4]; 48 hours, control group 21.4): 23.1%
- Erythropoiesis enhancing ratio (%) ([4]; percent increase of 59Fe incorporation rate vs control): +7.9%
- Mortality [5]: no case of death in all of the mice tested

Molecule: Prostaglandin E
- Effect on colony formation of erythropoietic progenitor cells [6]: .uparw.

Molecule: Growth hormone: hormone named in Table 1
- Effect on colony formation of erythropoietic progenitor cells [6]: .uparw.

Molecule: C[C@@H]1C[C@H]2[C@@H]3CCC4=CC(=O)C=C[C@]4(C)[C@@]3(F)[C@@H](O)C[C@]2(C)[C@@]1(O)C(=O)CO [Dexamethasone]
- Effect on colony formation of erythropoietic progenitor cells [6]: .uparw.
- Side-effects [7]: clinically undesirable side-effects such as electrolytic disorders, hypertension, peptic ulcer, diabetes, liver impediments, and masculinization

Molecule: NNc1ccccc1 [phenylhydrazine, reference compound]
- Rate of dolichol biosynthesis in spleen [8]: greatly increased

Molecule: Thyroid hormone
- Effect on colony formation of erythropoietic progenitor cells [6]: .uparw.

Molecule: CC[C@H](C)C(=O)O[C@H]1CCC=C2C=C[C@H](C)[C@H](CC[C@@H]3C[C@@H](O)CC(=O)O3)[C@H]21 [compactin]
- Differentiation of sea urchin embryos [9]: did not occur

B1: Human chorionic somatomammotropin: hormone named in Table 1 (protein, UniProt P0DML2 27-217, looked up)
Chorionic somatomammotropin …: VQTVPLSRLFDHAMLQAHRAHQLAIDTYQEFEETYIPKDQKYSFLHDSQTSFCFSDSIPTPSNMEETQQKSNLELLRISLLLIESWLEPVRFLRSMFANNLVYDTSDSDDYHLLKDLEEGIQTLMGRLEDGSRRTGQILKQTYSKFDTNSHNHDALLKNYGLLYCFRKDMDKVETFLRMVQCRSVEGSCGF
- Effect on colony formation of erythropoietic progenitor cells [6]: .uparw.
